Measurements as given in patent US20150344444A1, “BET-PROTEIN-INHIBITING DIHYDROXYQUINOXALINONES” (BAYER PHARMA AKTIENGESELLSCHAFT, priority 2012, published 2015).

Experiments:
[1] = target: T1, BRD4 Bromo Domain 1 [BRD4(1)] (Homo sapiens, UniProt O60885); assay: BRD4(1)/acetylated peptide H4 binding assay (TR-FRET); settings: inhibition of interaction between His6-tagged BRD4(1) (amino acids 67-152) and acetylated histone H4 peptide
T1 construct: N-terminally His6-tagged BRD4(1) (amino acids 67-152); made in house; host or cells: E. coli
Excerpt: Protein-Protein Interaction Assay: BRD4/Acetylated Peptide H4 Binding Assay
1. Assay Description for BRD4 Bromo Domain 1 [BRD4(1)]
To assess the BRD4(1) binding strength of the substances described in this application, the ability thereof to inhibit the interaction between BRD4(1) and acetylated histone H4 in a dose-dependent manner was quantified.
For this purpose, a time-resolved fluorescence resonance energy transfer (TR-FRET) assay was used, which measures the binding between N-terminally His6-tagged BRD4(1) (amino acids 67-152) and a synthetic acetylated histone H4 (Ac-H4) peptide with sequence GRGK(Ac)GGK(Ac)GLGK(Ac)GGAK(Ac)RHGSGSK-biotin. The recombinant BRD4(1) protein produced in house according to Filippakopoulos et al., Cell, 2012, 149:214-231 was expressed in E. coli and purified by means of (Ni-NTA) affinity and (Sephadex G-75) size exclusion chromatography. The Ac-H4 peptide can be purchased, for example, from Biosyntan (Berlin, Germany).
In the assay, typically 11 different concentrations of each substance (0.1 nM, 0.33 nM, 1.1 nM, 3.8 nM, 13 nM, 44 nM, 0.15 μM, 0.51 μM, 1.7 μM, 5.9 μM and 20 μM) were analysed as duplicates on the same microtitre plate. For this purpose, 100-fold concentrated solutions in DMSO were prepared by serial dilutions (1:3.4) of a 2 mM stock solution into a clear, 384-well microtitre plate (Greiner Bio-One, Frickenhausen, Germany). From this, 50 nl were transferred into a black test plate (Greiner Bio-One, Frickenhausen, Germany). The test was started by the addition of 2 μl of a 2.5-fold concentrated BRD4(1) solution (final concentration typically 10 nM in the 5 μl of reaction volume) in aqueous assay buffer [50 mM HEPES pH 7.5, 50 mM sodium chloride (NaCl), 0.25 mM CHAPS and 0.05% serum albumin (BSA)] to the substances in the test plate. This was followed by a 10-minute incubation step at 22° C. for the pre-equilibration of putative complexes between BRD4(1) and the substances.
The mixture was then incubated in the dark at 22° C. for one hour and then at 4° C. for at least 3 hours and for no longer than overnight. The formation of BRD4(1)/Ac-H4 complexes was determined by the measurement of the resonance energy transfer from the streptavidin-Eu cryptate to the anti-6His-XL665 antibody present in the reaction. For this purpose, the fluorescence emission was measured at 620 nm and 665 nm after excitation at 330-350 nm in a TR-FRET measuring instrument, for example a Rubystar or Pherastar (both from BMG Lab Technologies, Offenburg, Germany) or a Viewlux (Perkin-Elmer). The ratio of the emissions at 665 nm and at 622 nm was taken as an indicator of the amount of BRD4(1)/Ac-H4 complexes formed.
The data (ratios) obtained were normalized, with 0% inhibition corresponding to the mean from the measurements for a set of controls (typically 32 data points) in which all the reagents were present. In these, in place of test substances, 50 nl of DMSO (100%) were used Inhibition of 100% corresponded to the mean from the measurements for a set of controls (typically 32 data points) in which all the reagents except BRD4(1) were present. The IC50 was determined by regression analysis based on a 4-parameter equation (minimum, maximum, IC50, Hill; Y=max+(min−max)/(1+(X/IC50)Hill).

B16F10 cells = assay: B16F10 cell proliferation assay (alamarBlue); type: cell-based; settings: B16-F10; inhibition of cell proliferation, 96 hours, mouse melanoma cell line
Experimental: In accordance with the invention, the ability of the substances to inhibit cell proliferation was determined Cell viability was determined by means of the alamarBlue® reagent (Invitrogen) in a Victor X3 Multilabel Reader (Perkin Elmer). The excitation wavelength was 530 nm and the emission wavelength […].
The B16F10 cells (ATCC, CRL-6475) were sown at a concentration of 300-500 cells/well in 100 μl of growth medium (DMEM with phenol red, 10% FCS) on 96-well microtitre plates.
After overnight incubation at 37° C., the fluorescence values were determined (CI values). Then the plates were treated with various substance dilutions (1E-5 M, 3E-6 M, 1E-6 M, 3E-7 M, 1E-7 M, 3E-8 M, 1E-8 M) and incubated at 37° C. over 96 hours (MOLM-13, B16F10 cells) or 120 hours (MOLP-8 cells). Subsequently, the fluorescence values were determined (CO values). For the data analysis, the CI values were subtracted from the CO values and the results were compared between cells which had been treated with various dilutions of the substance or only with buffer solution. The IC50 values (substance concentration needed for 50% inhibition of cell proliferation) were calculated therefrom.
B16F10 mouse melanoma cell line

Row | Structure (SMILES) | IC50 [1] | IC50 (B16F10 cells)
1 | C[C@@H]1C(=O)N(C)c2ccc(Nc3ccc(C(=O)NC4CCN(C)CC4)cc3)cc2N1Cc1c(F)cccc1F (stereo in doubt) [Example 39, 4-{[4-(2,6-difluorobenzyl)-1,3-dimethyl-2-oxo-1,2,3,4-tetrahydroquinoxalin-6-yl]amino}-N-(1-methylpiperidin-4-yl)benzamide] | 1040 nM | 3280 nM
2 | C[C@@H]1C(=O)N(C)c2ccc(Nc3ccc(C(=O)NC4CCC(N5CCN(CC6CC6)CC5)CC4)cc3)cc2N1Cc1c(F)cccc1F (stereo in doubt) [Example 40, N-{4-[4-(cyclopropylmethyl)piperazin-1-yl]cyclohexyl}-4-{[4-(2,6-difluorobenzyl)-1,3-dimethyl-2-oxo-1,2,3,4-tetrahydroquinoxalin-6-yl]amino}benzamide] | 1280 nM | 4980 nM
3 | C[C@@H]1C(=O)N(C)c2ccc(Nc3ccc(C(=O)NC4CCCC4)cc3)cc2N1C1CCCC1 [Example 1, N-cyclopentyl-4-{[(3R)-4-cyclopentyl-1,3-dimethyl-2-oxo-1,2,3,4-tetrahydroquinoxalin-6-yl]amino}benzamide] | 173 nM | 1500 nM
4 | C[C@@H]1C(=O)N(C)c2ccc(Nc3ccc(C(=O)NC4CC4)cc3)cc2N1C1CCCC1 [Example 2, 4-{[(3R)-4-cyclopentyl-1,3-dimethyl-2-oxo-1,2,3,4-tetrahydroquinoxalin-6-yl]amino}-N-cyclopropylbenzamide] | 144 nM | 1690 nM
5 | C[C@@H]1C(=O)N(C)c2ccc(Nc3ccc(S(=O)(=O)N(C)C)cc3)cc2N1C1CCCC1 [Example 3, 4-{[(3R)-4-cyclopentyl-1,3-dimethyl-2-oxo-1,2,3,4-tetrahydroquinoxalin-6-yl]amino}-N,N-dimethylbenzenesulphonamide] | 63 nM | 327 nM
6 | C[C@@H]1C(=O)N(C)c2ccc(Nc3ccc(C(=O)N4CCOCC4)cc3)cc2N1C1CCCC1 [Example 6, (3R)-4-cyclopentyl-1,3-dimethyl-6-{[4-(morpholin-4-ylcarbonyl)phenyl]amino}-3,4-dihydroquinoxalin-2(1H)-one] | 74 nM | 371 nM
7 | CC(C)NC(=O)c1ccc(Nc2ccc3c(c2)N(C2CCCC2)[C@H](C)C(=O)N3C)cc1 [Example 7, 4-{[(3R)-4-cyclopentyl-1,3-dimethyl-2-oxo-1,2,3,4-tetrahydroquinoxalin-6-yl]amino}-N-isopropylbenzamide] | 167 nM | 1020 nM
8 | C[C@@H]1C(=O)N(C)c2ccc(Nc3ccc(C(=O)N(C)C)cc3)cc2N1C1CCCC1 [Example 8, 4-{[(3R)-4-cyclopentyl-1,3-dimethyl-2-oxo-1,2,3,4-tetrahydroquinoxalin-6-yl]amino}-N,N-dimethylbenzamide] | 98 nM | 584 nM
9 | C[C@@H]1C(=O)N(C)c2ccc(Nc3ccc(C(=O)NC4CC4)cc3)cc2N1Cc1ccccc1 [Example 10, 4-{[(3R)-4-benzyl-1,3-dimethyl-2-oxo-1,2,3,4-tetrahydroquinoxalin-6-yl]amino}-N-cyclopropylbenzamide] | 308 nM | 
10 | C[C@@H]1C(=O)N(C)c2ccc(Nc3ccc(C(=O)NC4CCN(C)CC4)cc3)cc2N1Cc1ccccc1 [Example 11, 4-{[(3R)-4-benzyl-1,3-dimethyl-2-oxo-1,2,3,4-tetrahydroquinoxalin-6-yl]amino}-N-(1-methylpiperidin-4-yl)benzamide] | 239 nM | 768 nM
11 | C[C@@H]1C(=O)N(C)c2ccc(Nc3ccc(S(=O)(=O)N(C)C)cc3)cc2N1Cc1ccccc1 [Example 14, 4-{[(3R)-4-benzyl-1,3-dimethyl-2-oxo-1,2,3,4-tetrahydroquinoxalin-6-yl]amino}-N,N-dimethylbenzenesulphonamide] | 283 nM | 178 nM
12 | C[C@@H]1C(=O)N(C)c2ccc(Nc3ccc(S(=O)(=O)N4CCN(C)CC4)cc3)cc2N1Cc1ccccc1 [Example 15, (3R)-4-benzyl-1,3-dimethyl-6-({4-[(4-methylpiperazin-1-yl)sulphonyl]phenyl}amino)-3,4-dihydroquinoxalin-2(1H)-one] | 128 nM | 224 nM
13 | C[C@@H]1C(=O)N(C)c2ccc(Nc3ccc(C(=O)NCC4COC4)cc3)cc2N1C1CCCCCC1 [Example 25, 4-{[(3R)-4-cycloheptyl-1,3-dimethyl-2-oxo-1,2,3,4-tetrahydroquinoxalin-6-yl]amino}-N-(oxetan-3-ylmethyl)benzamide] | 454 nM | 

Further compounds by falling IC50 [1], results first:

Row | IC50 [1] | IC50 (B16F10 cells) | Structure (SMILES)
14 | 257 nM | 251 nM | C[C@@H]1C(=O)N(C)c2ccc(Nc3ccc(C(=O)N4CC5(CCS5(=O)=O)C4)cc3)cc2N1Cc1ccccc1 [Example 16, (3R)-4-benzyl-6-({4-[(1,1-dioxido-1-thia-6-azaspiro[3.3]hept-6-yl)carbonyl]phenyl}amino)-1,3-dimethyl-3,4-dihydroquinoxalin-2(1H)-one]
15 | 249 nM | 365 nM | C[C@@H]1C(=O)N(C)c2ccc(Nc3ccc(C(=O)NCC4COC4)cc3)cc2N1Cc1ccccc1 [Example 9, 4-{[(3R)-4-benzyl-1,3-dimethyl-2-oxo-1,2,3,4-tetrahydroquinoxalin-6-yl]amino}-N-(oxetan-3-ylmethyl)benzamide]
16 | 190 nM | 287 nM | COc1ccc(CN2c3cc(Nc4ccc(C(=O)N5CCOCC5)cc4)ccc3N(C)C(=O)[C@H]2C)cc1 [Example 18, (3R)-4-(4-methoxybenzyl)-1,3-dimethyl-6-{[4-(morpholin-4-ylcarbonyl)phenyl]amino}-3,4-dihydroquinoxalin-2(1H)-one]
17 | 168 nM | 136 nM | C[C@@H]1C(=O)N(C)c2ccc(Nc3ccc(S(=O)(=O)N4CCOCC4)cc3)cc2N1Cc1ccccc1 [Example 13, (3R)-4-benzyl-1,3-dimethyl-6-{[4-(morpholin-4-ylsulphonyl)phenyl]amino}-3,4-dihydroquinoxalin-2(1H)-one]
18 | 156 nM | 179 nM | C[C@@H]1C(=O)N(C)c2ccc(Nc3ccc(C(=O)N4CCOCC4)cc3)cc2N1Cc1ccccc1 [Example 12, (3R)-4-benzyl-1,3-dimethyl-6-{[4-(morpholin-4-ylcarbonyl)phenyl]amino}-3,4-dihydroquinoxalin-2(1H)-one]
19 | 148 nM | 248 nM | COc1ccc(CN2c3cc(Nc4ccc(C(=O)NCC5COC5)cc4)ccc3N(C)C(=O)[C@H]2C)cc1 [Example 19, 4-{[(3R)-4-(4-methoxybenzyl)-1,3-dimethyl-2-oxo-1,2,3,4-tetrahydroquinoxalin-6-yl]amino}-N-(oxetan-3-ylmethyl)benzamide]
20 | 114 nM | 378 nM | COc1ccc(CN2c3cc(Nc4ccc(C(=O)NC5CCN(C)CC5)cc4)ccc3N(C)C(=O)[C@H]2C)cc1 [Example 17, 4-{[(3R)-4-(4-methoxybenzyl)-1,3-dimethyl-2-oxo-1,2,3,4-tetrahydroquinoxalin-6-yl]amino}-N-(1-methylpiperidin-4-yl)benzamide]
